Columns and labels:
Kv1.1 [1] = target: T1, Kv1.1 (Homo sapiens, UniProt Q09470); experiment: TEVC electrophysiology, Xenopus oocytes expressing Kv1.1; type: cell-based; conditions: 100 µM; for Slope / V0.5 Normalized tail current / V0.5 non-normalized tail current: paired control in same table
Procedure: (§1) We generated human potassium channel cRNA transcripts with the mMessage mMachine kit (Thermo Fisher Scientific, Waltham, MA, USA) according to manufacturer’s instructions, after vector linearization, from cDNA sub-cloned into expression vectors (pTLNx, pXOOM and pMAX). We injected Xenopus laevis oocytes (Xenoocyte, Dexter, MI, USA) with the channel cRNAs (0.5–10 ng) and incubated the oocytes at 16 °C for 1–4 days prior to electrophysiological recording.
(§2) We performed TEVC at 20–23 °C with an OC-725C amplifier (Warner Instruments, Hamden, CT, USA) and pClamp10 software. Chemicals for recording and oocyte storage solutions were from Sigma-Aldrich (St. Louis, MO). Bath solution contained (in mM): 96 NaCl, 4 KCl, 1 MgCl2, 1 CaCl2, 10 HEPES (pH 7.6). Pipettes were 1–2 MΩ resistance when filled with 3 M KCl. We recorded currents in response to voltage pulses between −120 mV or −80 mV and +40 mV at 10 mV intervals from a holding potential of −80 mV, to yield current–voltage relationships and examine activation kinetics. We recorded and analyzed data using Clampfit (Molecular Devices, Sunnyvale, CA, USA) and Graphpad Prism software (GraphPad, San Diego, CA, USA), stating values as mean ± SEM. We calculated the voltage dependence of activation (V0.5) by measuring tail currents at a voltage pulse of −30 mV (Kv7) or −50 mV (Kv1), then fitted the tail current/voltage relationship with a single Boltzmann function:1 g=(A1−A2)/{1+exp[V1/2−V/Vs]}y+A2 where g is the normalized tail conductance, A1 is the initial value at −∞, A2 is the final value at +∞, V1/2 is the half-maximal voltage of activation and Vs the slope factor. We fitted activation and deactivation kinetics with single exponential functions.

TREK-1 = conditions: read-out: TREK-1 activation EC50; cited from earlier work
Kv7.5 [2] = target: T2, Kv7.5 (Homo sapiens, UniProt Q9NR82); set-up: method as in PMID 35997997; conditions: cited from earlier work
Kv1.1 [3] = target: T1, Kv1.1; set-up: method as in PMID 33093824; conditions: cited from earlier work
Kv7.5 [4] = target: T2, Kv7.5; experiment: TEVC electrophysiology, Xenopus oocytes expressing Kv7.5; type: cell-based; conditions: 100 µM
Procedure: as §1, §2

C57BL/6 mice = system: C57BL/6 mice; set-up: method as in Abbott et al., 2021 Front. Physiol. 12:777057; conditions: 5 mg/kg morphine; ref Abbott et al., 2021 Front. Physiol. 12:777057; cited from earlier work

T2 sequence (Q9NR82 whole entry): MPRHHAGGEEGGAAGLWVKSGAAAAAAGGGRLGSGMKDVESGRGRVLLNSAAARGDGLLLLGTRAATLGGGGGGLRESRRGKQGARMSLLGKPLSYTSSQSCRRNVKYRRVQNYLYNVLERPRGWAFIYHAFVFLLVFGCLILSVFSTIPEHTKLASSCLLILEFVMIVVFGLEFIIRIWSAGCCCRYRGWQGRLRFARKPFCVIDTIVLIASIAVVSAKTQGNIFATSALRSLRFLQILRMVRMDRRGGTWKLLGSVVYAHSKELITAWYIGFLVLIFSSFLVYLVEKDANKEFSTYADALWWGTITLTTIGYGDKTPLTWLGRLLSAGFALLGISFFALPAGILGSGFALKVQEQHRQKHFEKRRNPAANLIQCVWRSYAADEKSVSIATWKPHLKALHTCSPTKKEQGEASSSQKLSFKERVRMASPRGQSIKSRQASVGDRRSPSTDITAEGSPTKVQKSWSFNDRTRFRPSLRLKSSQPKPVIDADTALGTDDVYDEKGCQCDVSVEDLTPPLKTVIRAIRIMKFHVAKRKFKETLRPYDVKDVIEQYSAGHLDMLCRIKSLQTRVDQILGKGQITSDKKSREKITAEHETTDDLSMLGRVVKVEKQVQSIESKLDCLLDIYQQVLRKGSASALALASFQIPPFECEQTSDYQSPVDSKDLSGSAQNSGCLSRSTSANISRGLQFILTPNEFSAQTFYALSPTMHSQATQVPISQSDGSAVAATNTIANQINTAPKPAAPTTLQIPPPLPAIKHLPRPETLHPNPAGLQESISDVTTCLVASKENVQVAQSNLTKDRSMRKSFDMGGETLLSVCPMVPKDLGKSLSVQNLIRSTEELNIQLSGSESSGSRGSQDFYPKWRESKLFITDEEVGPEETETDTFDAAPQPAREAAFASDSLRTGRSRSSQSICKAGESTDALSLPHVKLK
T1 sequence (Q09470 whole entry): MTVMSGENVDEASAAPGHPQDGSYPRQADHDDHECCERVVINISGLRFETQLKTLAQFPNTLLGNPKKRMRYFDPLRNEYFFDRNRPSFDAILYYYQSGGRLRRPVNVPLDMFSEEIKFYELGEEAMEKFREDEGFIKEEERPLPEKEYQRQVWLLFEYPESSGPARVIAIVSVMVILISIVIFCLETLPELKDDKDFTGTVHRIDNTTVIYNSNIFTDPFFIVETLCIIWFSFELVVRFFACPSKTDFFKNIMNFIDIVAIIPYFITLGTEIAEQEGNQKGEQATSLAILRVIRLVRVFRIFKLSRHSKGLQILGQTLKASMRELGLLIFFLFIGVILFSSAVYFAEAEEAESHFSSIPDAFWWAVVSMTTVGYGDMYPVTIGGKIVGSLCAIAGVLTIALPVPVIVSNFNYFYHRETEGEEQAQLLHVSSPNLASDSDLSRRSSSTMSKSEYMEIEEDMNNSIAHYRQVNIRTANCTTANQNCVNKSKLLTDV

## Oc1cc(O)c2c(c1)OC(c1ccc(O)c(O)c1)C(O)C2 (single isomer, unassigned; (+)) [catechin hydrate, (+)-Catechin hydrate]
Kv1.1 [1]
  Slope: 6.10 ± 0.15 mV
  V0.5 Normalized tail current: -37.70 ± 0.45 mV
  V0.5 non-normalized tail current: -39.60 ± 0.63 mV

## c1ccc(-c2nnn[nH]2)c(Nc2cccc3c2CCCC3)c1 [BL-1249, (5,6,7,8-tetrahydro-naphthalen-1-yl)-[2-(1H-tetrazol-5-yl)-phenyl]-amine]
TREK-1
  EC50: 1.5 µM

## CS(=O)(=O)Nc1ccc(C(=O)NCc2ccc(Cl)cc2Cl)cc1 [ML335]
TREK-1
  EC50: 14 µM

## Cc1cc(Cl)ccc1OCCNC(=O)c1cccs1 [ML402]
TREK-1
  EC50: 14 µM

## O=C(O)c1cc(O)c(O)c(O)c1 [gallic acid]
Kv7.5 [2]
  activity on Kv7.5 compared with tannic acid: active but less efficacious
Kv1.1 [3]
  effect on voltage dependence of Kv1.1: negative-shift

## O=C(OC[C@H]1OC(O)[C@@](O)(COC(=O)c2cc(O)c(O)c(O)c2)[C@@H]1O)c1cc(O)c(O)c(O)c1 (stereo partly drawn) [hamamelitannin]
Kv7.5 [4]
  activity on Kv7.5 expressed in oocytes: inactive
Kv7.5 [4]; control 7.66 ± 0.33
  Slope: 7.57 ± 0.17 mV
Kv7.5 [4]; control -48.15 ± 1.14
  V0.5 Normalized tail current: -47.96 ± 0.99 mV
Kv7.5 [4]; control -50.27 ± 1.37
  V0.5 non-normalized tail current: -49.87 ± 1.44 mV
Kv1.1 [1]
  effect on EM of oocytes expressing Kv1.1: hyperpolarized the EM
  effect on Kv1.1: negative-shifted the voltage dependence of Kv1.1 activation
  Slope: 6.51 ± 0.73 mV
  V0.5 Normalized tail current: -35.11 ± 1.66 mV
  V0.5 non-normalized tail current: -36.25 ± 1.77 mV

## CN1CC[C@]23c4c5ccc(O)c4O[C@H]2[C@@H](O)C=C[C@H]3[C@H]1C5 [morphine]
C57BL/6 mice
  attenuation of early phase paw-licking: 40%
